Tests used:
EP3α = target: T1, EP3α (Mus musculus, UniProt P30557); assay: Binding assay using CHO cell membrane expressing prostanoid receptor subtype, [3H]-PGE2 competition; details: CHO cell membrane fraction, 2.5 nM [3H]-PGE2, 1 hour at room temperature, pH6.0
T1 construct: expressed in transfected cells; host or cells: CHO cells, membrane fraction
T1 sequence (P30557 1-365): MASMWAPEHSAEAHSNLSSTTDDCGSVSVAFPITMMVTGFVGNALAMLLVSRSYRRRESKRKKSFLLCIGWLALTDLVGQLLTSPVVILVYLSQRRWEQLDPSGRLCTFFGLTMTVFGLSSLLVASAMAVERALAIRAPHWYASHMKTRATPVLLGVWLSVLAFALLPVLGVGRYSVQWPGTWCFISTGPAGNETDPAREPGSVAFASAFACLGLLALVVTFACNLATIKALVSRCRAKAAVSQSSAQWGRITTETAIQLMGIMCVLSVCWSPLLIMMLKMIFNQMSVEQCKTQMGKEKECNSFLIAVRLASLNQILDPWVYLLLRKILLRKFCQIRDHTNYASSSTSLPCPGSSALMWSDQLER
Protocol: (§1) For example, in a standard laboratory test, such effects of the compound of the present invention were confirmed by binding assay using cell expressing the prostanoid receptor subtypes. (i) Binding assay using cell expressing the prostanoid receptor subtypes The preparation of membrane fraction was carried out according to the method of Sugimoto et al (J. Biol. Chem., 267, 6463-6466 (1992)), using CHO cell expressing prostanoid receptor subtype (mouse EP1, EP2, EP3, and EP4, and human IP).
(§2) The reaction solution (200 μl) containing membrane fraction (0.5 mg/ml), [^3H]-PGE2 was incubated for 1 hour at room temperature. The reaction was terminated by addition of 3 ml of ice-cold buffer. The mixture was rapidly filtered under reduced pressure through a glass filter (GF/B). The radioactivity associated with the filter was measured by liquid scintillation counter.
(§3) Kd and Bmax values were determined from Scatchard plots [Ann. N.Y. Acad. Sci., 51, 660 (1949)]. Non-specific binding was calculated as the amount bound in the presence of an excess (2.5 μM) of unlabeled PGE2. In the experiment for competition of specific [^3H]-PGE2 binding by the compounds of the present invention, [^3H]-PGE2 was added at a concentration of 2.5 nM and the compound of the present invention was added at various concentrations. The following buffer was used in all reactions. Buffer: 10 mM potassium phosphate (pH6.0), 1 mM EDTA, 10 mM MgCl2, 0.1 M NaCl
(§4) The dissociation constant Ki (μM) of each compound was calculated by the following equation.

mouse EP1 = target: T2, mouse EP1 (Mus musculus, UniProt P35375); assay: as above; details: CHO cell membrane fraction, 2.5 nM [3H]-PGE2, 1 hour at room temperature, pH6.0
T2 construct: expressed in transfected cells; host or cells: CHO cells, membrane fraction
T2 sequence (P35375 1-405): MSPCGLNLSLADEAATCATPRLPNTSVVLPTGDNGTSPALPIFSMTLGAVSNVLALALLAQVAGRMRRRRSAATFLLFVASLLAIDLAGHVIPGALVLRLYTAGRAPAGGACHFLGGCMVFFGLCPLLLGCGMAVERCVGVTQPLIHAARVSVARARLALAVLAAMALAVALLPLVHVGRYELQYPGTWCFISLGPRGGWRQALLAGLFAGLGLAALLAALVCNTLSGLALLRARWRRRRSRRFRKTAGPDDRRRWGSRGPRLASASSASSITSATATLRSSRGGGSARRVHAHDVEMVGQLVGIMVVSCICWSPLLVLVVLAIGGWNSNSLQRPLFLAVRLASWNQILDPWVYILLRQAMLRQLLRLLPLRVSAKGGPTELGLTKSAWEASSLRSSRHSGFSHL
Protocol: as §1, §2, §3, §4

mouse EP4 = target: T3, mouse EP4 (Mus musculus, UniProt P32240); assay: as above; details: CHO cell membrane fraction, 2.5 nM [3H]-PGE2, 1 hour at room temperature, pH6.0
T3 construct: expressed in transfected cells; host or cells: CHO cells, membrane fraction
Protocol: as §1, §2, §3, §4

rat = assay: Toxicity: maximum tolerance dose by i.v. route in rat; format: in vivo
Protocol: The toxicity of the compounds of the formula (I) of the present invention is very low and therefore, it is confirmed that these compounds are safe for use as medicine. For example, the maximum tolerance dose of the compound of Example 1 by i.v. route in rat was 30 mg/kg body weight or more.

T3 sequence (P32240 whole entry): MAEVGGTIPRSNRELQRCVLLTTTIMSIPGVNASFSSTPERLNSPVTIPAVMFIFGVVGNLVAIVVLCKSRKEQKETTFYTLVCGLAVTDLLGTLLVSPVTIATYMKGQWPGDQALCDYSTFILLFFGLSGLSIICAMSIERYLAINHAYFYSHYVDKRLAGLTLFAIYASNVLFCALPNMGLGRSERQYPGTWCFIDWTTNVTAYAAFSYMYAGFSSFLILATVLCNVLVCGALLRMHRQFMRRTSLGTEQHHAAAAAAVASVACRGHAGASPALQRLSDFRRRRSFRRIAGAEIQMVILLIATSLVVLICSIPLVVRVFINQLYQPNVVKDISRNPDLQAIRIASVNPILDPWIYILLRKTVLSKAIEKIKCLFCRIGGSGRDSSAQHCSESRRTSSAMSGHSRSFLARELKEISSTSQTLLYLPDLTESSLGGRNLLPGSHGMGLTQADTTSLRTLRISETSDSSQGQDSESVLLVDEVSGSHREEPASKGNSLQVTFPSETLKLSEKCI

Row | Compound | Ki (EP3α) [nM] | Ki (mouse EP1) [nM] | Ki (mouse EP4) [nM] | maximum tolerance dose (rat) [mg/kg body weight]
1 | COCc1cccc(C[C@H](O)/C=C/[C@@H]2[C@@H](CCSCCCC(=O)O)[C@H](Cl)C[C@H]2O)c1 [3 (2), (9β,11α,13E,15α)-9-Chloro-11,15-dihydroxy-16-(3-methoxymethylphenyl)-17,18,19,20-tetranor-5-thiaprost-13-enoic Acid] | > 10000 | > 10000 | 7.9 | 
2 | COCc1cccc(C[C@H](O)/C=C/[C@@H]2[C@@H](CCSCCCC(=O)O)[C@H](F)C[C@H]2O)c1 [3 (3), (9β,11α,13E,15α)-9-Fluoro-11,15-dihydroxy-16-(3-methoxymethylphenyl)-17,18,19,20-tetranor-5-thiaprost-13-enoic Acid] | 1500 | > 10000 | 18 | 
3 | COCc1cccc(C[C@H](O)/C=C/[C@H]2[C@H](O)CC(=O)[C@@H]2CCSCCCC(=O)OC)c1 [Example 1, (11α,13E,15α)-9-oxo-11,15-Dihydroxy-16-(3-methoxymethylphenyl)-17,18,19,20-tetranor-5-thiaprost-13-enoic Acid·Methyl Ester] |  |  |  | ≥ 30
4 | COCc1cccc(C[C@H](O)/C=C/[C@H]2[C@H](O)CC(=O)[C@@H]2CCSCCCC(=O)O)c1 [Example 3, (11α,13E,15α)-9-oxo-11,15-Dihydroxy-16-(3-methoxymethylphenyl)-17,18,19,20-tetranor-5-thiaprost-13-enoic Acid] | 840 | > 10000 | 3.8 | 

The remaining compounds from weak to strong by Ki (EP3α), led by results:

Row | Ki (EP3α) [nM] | Ki (mouse EP1) [nM] | Ki (mouse EP4) [nM] | Compound | maximum tolerance dose (rat) [mg/kg body weight]
5 | 2900 | > 10000 | 2.4 | Cc1cc(C[C@H](O)/C=C/[C@H]2[C@H](O)CC(=O)[C@@H]2CCSCCCC(=O)O)ccc1O [3 (1), (11α,13E,15α)-9-oxo-11,15-Dihydroxy-16-(3-methyl-4-hydroxyphenyl)-17,18,19,20-tetranor-5-thiaprost-13-enoic Acid] | 
6 | 570 | > 10000 | 15 | CCCOCc1cccc(C[C@H](O)/C=C/[C@H]2[C@H](O)CC(=O)[C@@H]2CCSCCCC(=O)O)c1 [3 (5), (11α,13E,15α)-9-oxo-11,15-Dihydroxy-16-(3-n-propyloxymethylphenyl)-17,18,19,20-tetranor-5-thiaprost-13-enoic Acid] | 
7 | 500 | > 10000 | 10 | (11α,13E,15α)-9-oxo-11,15-Dihydroxy-16-(3-ethoxymethylphenyl)-17,18,19,20-tetranor-5-thiaprost-13-enoic Acid [3 (4)] | 
8 | 460 | > 10000 | 6.2 | COCc1cccc(C[C@H](O)CC[C@H]2[C@H](O)CC(=O)[C@@H]2CCSCCCC(=O)O)c1 [Example 6, (11α,15α)-9-oxo-11,15-Dihydroxy-16-(3-methoxymethylphenyl)-17,18,19,20-tetranor-5-thiaprostanoic Acid] | 
